Assay results published in US20050245452A1, “Pharmaceutical use of novispirins” (Novozymes A/S, priority 2004, published 2005).

Tests used:
[1] = system: Pseudomonas aeruginosa CF86/57388A (mucoid); assay: Pseudomonas aeruginosa lung infection in rats: lung pathology and lung bacteriology; assay type: in vivo, Lewis rat; conditions: for Lung bacteriology: Percentage of animals that cleared the bacteria in the lungs / Lung pathological scores: animals with Score 1 + 2 / Lung pathological scores: animals with Score 3 / Lung pathological scores: animals with Score 4: 0.1 mg/ml, 0.1 ml/rat intratracheally at hour 0 and 3
Experimental: (§1) The bacterial strain, Pseudomonas aeruginosa, used in the study is CF86/57388A (1997), which is isolated from a cystic fibrosis patient and keeps stable mucoid phenotype. The rat strain used in the study is Lewis rat (7 weeks old, female) imported from Germany. Both bacterial challenge and drug administration were done intratracheally. All rats were challenged with mucoid P. aeruginosa in alginate. The concentration of the bacteria was 1×10^10 CFU/ml and each rat received 0.1 ml (1×10^9 CFU) bacteria. Control group received placebo (sterile saline, 0.1 ml/rat) twice at hour 0 and 3, and the Novispirin G10 group received the peptide (0.1 mg/ml, 0.1 ml/rat) twice at hour 0 and 3. The animals were sacrificed on day 3, 5, 7 and 10 after challenge for parameters evaluation.

[2] = system: IFN-γ, TNF-α, IL4, IL-6 and IL-10 in lung supernatants; assay: Lung cytokine response (ELISA of lung supernatants) in P. aeruginosa lung infection in rats; assay type: in vivo, Lewis rat; design: Lung cytokine responses (Mean + SD): IL-4 / Lung cytokine responses (Mean + SD): IL-6 / Lung cytokine responses (Mean + SD): IL-10 / Lung cytokine responses (Mean + SD): IFN-gamma / Lung cytokine responses (Mean + SD): TNF-alpha: unit not given here
Experimental: as §1, with “evaluation. Supernatants of the lungs were harvested from days 3, 5 and 7 after lung infection and treatment. Interferon-gamma (IFN-γ), tumor necrosis factor-alpha (TNF-α), interleukin4 (IL4), IL-6 and IL-10 were measured by using ELISA kits (Nordic BioSite, Sweden).” for “evaluation.”

With “Novispirin G10: novispirin antimicrobial polypeptide; amino acid sequence shown in SEQ ID NO: 16 (KNLRRIIRKGIHIIKKYG; Synthetic antimicrobial peptide)” the “Lung bacteriology: Percentage of animals that cleared the bacteria in the lungs” value (“Lung bacteriology: Percentage” below) ([1]; Day 3) was “(30%)”, the “Lung bacteriology: Percentage” value ([1]; Day 5) was “(50%)” and the “Lung bacteriology: Percentage” value ([1]; Day 7) was “(90%)”. For the same substance, the “Lung bacteriology: Percentage” value ([1]; Day 10) was “(100%)”, the “Gross lung pathology compared with the placebo control group” value ([1]; all 4 time points (day 3, 5, 7, 10)) was “significantly milder lung pathology” and the Histopathology of lungs ([1]; day 3) was “lung consolidation with chronic inflammation is the dominant change”. The “Lung bacteriology compared to the control group” value ([1]; day 3) was 175 times lower, the “Severity of lung scoring versus control group” value ([1]; day 3) was “no significant difference in the severity of lung scoring” and the “Gross lung pathology: lung consolidation area” value ([1]; day 3, versus placebo control) was “the consolidation area was much smaller”. The “Lung pathological scores: animals with Score 1 + 2” value ([1]; day 3 after challenge) was 0/14 = 0%, the “Lung pathological scores: animals with Score 3” value ([1]; day 3 after challenge) was 3/14 = 21.4% and the “Lung pathological scores: animals with Score 4” value ([1]; day 3 after challenge) was 11/14 = 78.6%. The Histopathology of lungs ([1]; day 5) was “milder chronic inflammation”, the “Lung pathological scores: animals with Score 1 + 2” value ([1]; day 5 after challenge) was 0/14 = 0% and the “Lung pathological scores: animals with Score 3” value ([1]; day 5 after challenge) was 10/14 = 71.4%. The “Lung pathological scores: animals with Score 4” value ([1]; day 5 after challenge) was 0/14 = 0%, the “Lung pathological scores: animals with Score 1 + 2” value ([1]; day 7 after challenge) was 6/11 = 54.5% and the “Lung pathological scores: animals with Score 3” value ([1]; day 7 after challenge) was 5/11 = 45.5%. For the same substance, the “Lung pathological scores: animals with Score 4” value ([1]; day 7 after challenge) was 0/11 = 0%, the Histopathology of lungs ([1]; day 10) was “the lung pathology was tended to be cured” and the “Lung pathological scores: animals with Score 1 + 2” value ([1]; day 10 after challenge) was 11/14 = 78.6%. For the same substance, the “Lung pathological scores: animals with Score 3” value ([1]; day 10 after challenge) was 3/14 = 21.4%, the “Lung pathological scores: animals with Score 4” value ([1]; day 10 after challenge) was 0/14 = 0% and the “Gross lung pathology: dominant finding” value ([1]; days 5, 7 and 10) was “small lung atelectasis, no abscess and adhesion found”. The “Severity of lung scoring versus control group” value ([1]; from day 5 on) was “significantly milder lung pathology”, the “Histopathology of lungs in comparison with the placebo control group” value ([1]; overall, intratracheal treatment) was “milder lung inflammation and recover remarkably faster” and the “Lung cytokine responses (Mean + SD): IFN-gamma” value ([2]; Day 3, lung supernatant) was 65.3 ± 28.6. The “Lung cytokine responses (Mean + SD): IL-4” value ([2]; Day 3, lung supernatant) was 34.5 ± 4.5, the “Lung cytokine responses (Mean + SD): IL-6” value ([2]; Day 3, lung supernatant) was 74.1 ± 10.0 and the “Lung cytokine responses (Mean + SD): IL-10” value ([2]; Day 3, lung supernatant) was 51.7 ± 2.6. For the same substance, the “Lung cytokine responses (Mean + SD): TNF-alpha” value ([2]; Day 3, lung supernatant) was 159.2 ± 23.8, the “Lung cytokine responses (Mean + SD): IFN-gamma” value ([2]; Day 5, lung supernatant) was 116.6 ± 42.1 and the “Lung cytokine responses (Mean + SD): IL-4” value ([2]; Day 5, lung supernatant) was 45.3 ± 5.9. The “Lung cytokine responses (Mean + SD): IL-6” value ([2]; Day 5, lung supernatant) was 65.2 ± 11.1, the “Lung cytokine responses (Mean + SD): IL-10” value ([2]; Day 5, lung supernatant) was 57.8 ± 7.6 and the “Lung cytokine responses (Mean + SD): TNF-alpha” value ([2]; Day 5, lung supernatant) was 128.1 ± 19.0. For the same substance, the “Lung cytokine responses (Mean + SD): IFN-gamma” value ([2]; Day 7, lung supernatant) was 79.9 ± 16.2, the “Lung cytokine responses (Mean + SD): IL-4” value ([2]; Day 7, lung supernatant) was 37.3 ± 5.9 and the “Lung cytokine responses (Mean + SD): IL-6” value ([2]; Day 7, lung supernatant) was 61.5 ± 11.0. The “Lung cytokine responses (Mean + SD): IL-10” value ([2]; Day 7, lung supernatant) was 51.3 ± 2.9, the “Lung cytokine responses (Mean + SD): TNF-alpha” value ([2]; Day 7, lung supernatant) was 121.8 ± 19.6 and the “All 5 kinds of cytokine levels compared to the control group” value ([2]; day 3, early phase of the infection) was “significantly lower”.
